Measured values reported in PubChem BioAssay AID328 (DTP/NCI, 2004).
“And” between values parts separate entries of the source, which are not always exact repeats. Identical values can stand only once. Inconclusive results and toxic doses are left out.

Test system: BDF1 mice, P388 leukemia ip, median survival T/C
Experiment: NCI In Vivo Anticancer Drug Screen. Data for tumor model P388 Leukemia (intraperitoneal) in B6D2F1 (BDF1) mice
Details: endpoint: median survival time, higher = longer survival
Summary of the method: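 Survival ratio, drug arm over vehicle arm, in mice with a transplanted tumour.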

[1] = dose: 100.0 mg/kg/injection, schedule: Q04DX003 (ip), vehicle: saline sonified
[2] = dose: 200.0 mg/kg/injection, schedule: Q04DX003 (ip), vehicle: saline sonified
[3] = dose: 400.0 mg/kg/injection, schedule: Q04DX003 (ip), vehicle: saline sonified
[4] = dose: 100.0 mg/kg/injection, schedule: Q01DX001 (ip), vehicle: saline with Tween-80
[5] = dose: 200.0 mg/kg/injection, schedule: Q01DX001 (ip), vehicle: saline with Tween-80
[6] = dose: 400.0 mg/kg/injection, schedule: Q01DX001 (ip), vehicle: saline with Tween-80
[7] = dose: 50.0 mg/kg/injection, schedule: Q01DX009 (ip), vehicle: saline with Tween-80
[8] = dose: 100.0 mg/kg/injection, schedule: Q01DX009 (ip), vehicle: saline with Tween-80
[9] = dose: 200.0 mg/kg/injection, schedule: Q01DX009 (ip), vehicle: saline with Tween-80
[10] = dose: 100.0 mg/kg/injection, schedule: Q04DX003 (ip), vehicle: saline with Tween-80
[11] = dose: 200.0 mg/kg/injection, schedule: Q04DX003 (ip), vehicle: saline with Tween-80
[12] = dose: 400.0 mg/kg/injection, schedule: Q01DX009 (ip), vehicle: saline with Tween-80
[13] = dose: 400.0 mg/kg/injection, schedule: Q04DX003 (ip), vehicle: saline with Tween-80
[14] = dose: 25.0 mg/kg/injection, schedule: Q01DX009 (ip), vehicle: saline with Tween-80
[15] = dose: 50.0 mg/kg/injection, schedule: Q04DX003 (ip), vehicle: saline with Tween-80
[16] = dose: 100.0 mg/kg/injection, schedule: Q01DX009 (ip), vehicle: saline
[17] = dose: 200.0 mg/kg/injection, schedule: Q01DX009 (ip), vehicle: saline

With `CN=C1N[N+]2=CCCCC2S1` (stereo not drawn) the T/C (dose: 60.0 mg/kg/injection, schedule: Q01DX009 (ip), vehicle: saline) was 163 % of control and the T/C (dose: 120.0 mg/kg/injection, schedule: Q01DX009 (ip), vehicle: saline) was 95 % of control.

With `O=C(c1ccccc1)C1OC1c1ccc([N+](=O)[O-])cc1` (stereo not drawn) the T/C [1] was 104 % of control, the T/C [2] was 100 % of control and the T/C [3] was 100 % of control.

In the case of `Cc1c(O)ccc2c1CCCC2`, the T/C (dose: 50.0 mg/kg/injection, schedule: Q01DX001 (ip), vehicle: saline sonified) is reported as 90 % of control, the T/C (dose: 100.0 mg/kg/injection, schedule: Q01DX001 (ip), vehicle: saline sonified) is reported as 104 % of control and the T/C (dose: 200.0 mg/kg/injection, schedule: Q01DX001 (ip), vehicle: saline sonified) is reported as 100 % of control.

In the case of `Cn1c(N)c(N=Nc2ccccc2)c(=O)[nH]c1=O`, the T/C [4] is reported as 100 % of control, the T/C [5] is reported as 102 % of control and the T/C [6] is reported as 90 % of control.

`CCc1cccc2c(NCCCCCCNc3c4ccccc4nc4c(CC)cccc34)c3ccccc3nc12` was tested, and the T/C (dose: 0.31 mg/kg/injection, schedule: Q01DX009 (ip), vehicle: lactic acid) was 108 % of control, the T/C (dose: 0.62 mg/kg/injection, schedule: Q01DX009 (ip), vehicle: lactic acid) was 103 % of control and the T/C (dose: 5.0 mg/kg/injection, schedule: Q01DX009 (ip), vehicle: lactic acid) was 173 % of control.

`CN(C)c1ccc(C=O)c(Oc2ccccc2)c1` was tested, and the T/C (dose: 12.5 mg/kg/injection, schedule: Q04DX003 (ip), vehicle: Klucel (hydroxypropylcellulose) (HPC)) was 91 % of control, the T/C (dose: 25.0 mg/kg/injection, schedule: Q04DX003 (ip), vehicle: Klucel (hydroxypropylcellulose) (HPC)) was 108 % of control and the T/C (dose: 50.0 mg/kg/injection, schedule: Q04DX003 (ip), vehicle: Klucel (hydroxypropylcellulose) (HPC)) was 91 % of control. The T/C (dose: 200.0 mg/kg/injection, schedule: Q04DX003 (ip), vehicle: Klucel (hydroxypropylcellulose) (HPC)) was 100 % of control and the T/C (dose: 400.0 mg/kg/injection, schedule: Q04DX003 (ip), vehicle: Klucel (hydroxypropylcellulose) (HPC)) was 100 % of control.

`O=[N+]([O-])c1cccc(CS(=O)(=O)c2ccccc2)c1-c1c(CS(=O)(=O)c2ccccc2)cccc1[N+](=O)[O-]` was tested, and the T/C [1] was 95 % of control, the T/C [2] was 100 % of control and the T/C [3] was 86 % of control.

With `Cc1nc(-c2ccc(N=Cc3ccc(N(CCOS(C)(=O)=O)CCOS(C)(=O)=O)cc3C)cc2)cs1` the T/C (dose: 11.0 mg/kg/injection, schedule: Q01DX009 (ip), vehicle: Klucel (hydroxypropylcellulose) (HPC)) was 247 % of control, the T/C (dose: 16.5 mg/kg/injection, schedule: Q01DX009 (ip), vehicle: Klucel (hydroxypropylcellulose) (HPC)) was 277 % of control and 176 % of control and the T/C (dose: 24.75 mg/kg/injection, schedule: Q01DX009 (ip), vehicle: Klucel (hydroxypropylcellulose) (HPC)) was 108 % of control. The T/C (dose: 25.0 mg/kg/injection, schedule: Q01DX009 (ip), vehicle: Klucel (hydroxypropylcellulose) (HPC)) was 111 % of control.

In the case of `Cc1ccn2c(CCc3nnc4cc(C)ccn34)nnc2c1`, the T/C [7] is reported as 90 % of control, the T/C [8] is reported as 93 % of control and the T/C [9] is reported as 106 % of control.

With `CCCCCCCCSc1ncnc2nc[nH]c12` the T/C [8] was 108 % of control, the T/C [10] was 100 % of control and the T/C [9] was 87 % of control. The T/C [11] was 100 % of control, the T/C [12] was 108 % of control and the T/C [13] was 100 % of control.

`C=CCO` was tested, and the T/C (dose: 12.5 mg/kg/injection, schedule: Q01DX001 (ip), vehicle: saline with Tween-80) was 95 % of control, the T/C (dose: 25.0 mg/kg/injection, schedule: Q01DX001 (ip), vehicle: saline with Tween-80) was 104 % of control and the T/C (dose: 50.0 mg/kg/injection, schedule: Q01DX001 (ip), vehicle: saline with Tween-80) was 100 % of control.

With `c1ccc(CN2CCN(Cc3ccccc3)C2c2ccccc2)cc1` the T/C [14] was 103 % of control, the T/C [7] was 97 % of control and the T/C [15] was 107 % of control. The T/C [8] was 97 % of control, the T/C [10] was 107 % of control and the T/C [9] was 104 % of control. For the same compound, the T/C [11] was 103 % of control, the T/C [12] was 106 % of control and the T/C [13] was 96 % of control.

In the case of `C=CCOCCO`, the T/C [16] is reported as 112 % of control, the T/C (dose: 100.0 mg/kg/injection, schedule: Q04DX003 (ip), vehicle: saline) is reported as 91 % of control and the T/C [17] is reported as 112 % of control. The T/C (dose: 200.0 mg/kg/injection, schedule: Q04DX003 (ip), vehicle: saline) was 95 % of control, the T/C (dose: 400.0 mg/kg/injection, schedule: Q01DX009 (ip), vehicle: saline) was 100 % of control and the T/C (dose: 400.0 mg/kg/injection, schedule: Q04DX003 (ip), vehicle: saline) was 108 % of control.

For `CCOC(=O)Cn1c(=S)sc2ccccc21`, the T/C [14] was 114 % of control, the T/C [7] was 98 % of control and 114 % of control and the T/C [8] was 95 % of control and 120 % of control. The T/C [9] was 93 % of control and 100 % of control.

For `O=C1SC(c2ccccc2)=S=C1c1ccccc1`, the T/C [7] was 108 % of control, the T/C [8] was 123 % of control and the T/C [9] was 123 % of control. The T/C [12] was 117 % of control.

`O=C(CC(c1ccccc1)c1c(O)c2ccccc2oc1=O)c1ccccc1` (stereo not drawn) was tested, and the T/C (dose: 0.39 mg/kg/injection, schedule: Q01DX009 (ip), vehicle: saline with Tween-80) was 108 % of control, the T/C (dose: 0.78 mg/kg/injection, schedule: Q01DX009 (ip), vehicle: saline with Tween-80) was 106 % of control and the T/C (dose: 1.56 mg/kg/injection, schedule: Q01DX009 (ip), vehicle: saline with Tween-80) was 97 % of control. For the same compound, the T/C (dose: 3.12 mg/kg/injection, schedule: Q01DX009 (ip), vehicle: saline with Tween-80) was 90 % of control, the T/C (dose: 12.5 mg/kg/injection, schedule: Q04DX003 (ip), vehicle: saline with Tween-80) was 120 % of control and the T/C (dose: 25.0 mg/kg/injection, schedule: Q04DX003 (ip), vehicle: saline with Tween-80) was 109 % of control. The T/C [15] was 92 % of control, the T/C [10] was 101 % of control and the T/C [11] was 108 % of control.

For `O=C1c2cccc3cc([N+](=O)[O-])cc(c23)C(=O)N1CCN1CCCC1`, the T/C (dose: 6.25 mg/kg/injection, schedule: Q01DX009 (ip), vehicle: saline with Tween-80) was 157 % of control and the T/C (dose: 12.5 mg/kg/injection, schedule: Q01DX009 (ip), vehicle: saline with Tween-80) was 177 % of control.

`OCc1ccccc1Sc1ccccc1CO` was tested, and the T/C [7] was 91 % of control, the T/C [8] was 100 % of control and the T/C [9] was 99 % of control.

`Cc1nnc2c(=S)[nH]ccn12` was tested, and the T/C [4] was 113 % of control, the T/C [5] was 106 % of control and the T/C [6] was 100 % of control.

In the case of `C=C(Cl)CSCCCS`, the T/C (dose: 130.0 mg/kg/injection, schedule: Q01DX009 (ip), vehicle: saline) is reported as 95 % of control, the T/C [17] is reported as 104 % of control and the T/C (dose: 300.0 mg/kg/injection, schedule: Q01DX009 (ip), vehicle: saline) is reported as 118 % of control.

`CCOC(=O)Nc1cc2c(c(N)n1)N=C(CN(C)c1ccc(OC)cc1)CN2` was tested, and the T/C (dose: 12.5 mg/kg/injection, schedule: Q01DX001 (ip), vehicle: Klucel (hydroxypropylcellulose) (HPC)) was 175 % of control, the T/C (dose: 25.0 mg/kg/injection, schedule: Q01DX001 (ip), vehicle: Klucel (hydroxypropylcellulose) (HPC)) was 240 % of control and the T/C (dose: 50.0 mg/kg/injection, schedule: Q01DX001 (ip), vehicle: Klucel (hydroxypropylcellulose) (HPC)) was 277 % of control.

`O=C1O/C(=C2\OCc3ccccc32)c2ccccc21` was tested, and the T/C [14] was 100 % of control, the T/C [7] was 98 % of control and the T/C [8] was 98 % of control. The T/C [9] was 96 % of control.

With `C[C@H](CCC(=O)O)[C@H]1CC[C@H]2[C@@H]3[C@H](O)C[C@@H]4C[C@H](O)CC[C@]4(C)[C@H]3C[C@H](O)[C@]12C` (tested in a mixture with another compound) the T/C [16] was 155 % of control, the T/C (dose: 132.0 mg/kg/injection, schedule: Q04DX003 (ip), vehicle: saline sonified) was 122 % of control and the T/C (dose: 200.0 mg/kg/injection, schedule: Q01DX009 (ip), vehicle: other) was 209 % of control. The T/C [17] was 190 % of control, the T/C (dose: 300.0 mg/kg/injection, schedule: Q04DX003 (ip), vehicle: saline sonified) was 166 % of control and the T/C [3] was 172 % of control.

In the case of `C=C(C)COC(N)=O`, the T/C [8] is reported as 108 % of control, the T/C [9] is reported as 104 % of control and the T/C [12] is reported as 87 % of control.

With `C1OC1CO[C@@H]1CO[C@H]2[C@@H]1OC[C@H]2OCC1CO1` (stereo partly drawn) the T/C (dose: 264.0 mg/kg/injection, schedule: Q04DX003 (ip), vehicle: saline with Tween-80) was 183 % of control and the T/C [13] was 195 % of control.

In the case of `CCOC(=O)c1cnn(C(N)=O)c1N`, the T/C [8] is reported as 115 % of control, the T/C [10] is reported as 110 % of control and the T/C [9] is reported as 90 % of control. For the same compound, the T/C [11] was 115 % of control, the T/C [12] was 109 % of control and 115 % of control and the T/C [13] was 115 % of control.

`CC(C)(C)C(=O)/C=C/c1ccccc1` was tested, and the T/C [7] was 94 % of control, the T/C [8] was 90 % of control and the T/C [9] was 105 % of control.
